# Measurements reported in patent publication US7645752B2, “Sulfonyl substituted 1H-indoles as ligands for the 5-hydroxytryptamine receptors” (Wyeth LLC, priority 2006, dated 2010).
# pIC50, pKi: −log10 of the molar value. Where a name gives a salt, the structure may show the parent alone. Read-outs that look alike come from different tables or passages of the source.
# What was measured:
# [1] = target: T1, human cloned 5-HT6 receptors (Homo sapiens, UniProt P50406); test: 5-HT6 binding affinity, [3H]-LSD displacement on membranes of Hela cells; settings: for Ki: [3H]-LSD 3.0 nM, Hela cell membranes, read-out: Ki (nM) @ 5-HT6 receptor; for inhibition at 1 µM: read-out: % inhibition at 1 micromole
# T1 construct: expressed in transfected cells; host or cells: HeLa cells
# Summary of the method: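 Filter-bound radioactivity counted by scintillation. Binding at varying test-compound concentrations expressed as percent of specific binding without compound and plotted log % bound versus log concentration.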
# human 5-HT2A receptor = human 5-HT2A receptor (Homo sapiens, UniProt P28223); test: 5-HT2A FLIPR assay, antagonism of DOI calcium response in CHO cells; settings: for inhibition at 1 µM: CHO, read-out: 5-HT2A % Inhibition @ 1 uM
# human hNET = target: T2, human hNET (Homo sapiens, UniProt P23975); test: Norepinephrine (NE) uptake assay in MDCK-Net6 cells; assay type: cell-based; settings: for pIC50: [3H]NE uptake, MDCK-Net6 cells; for inhibition at 1 µM: MDCK-Net6
# T2 construct: expressed in transfected cells
# [2] = Table 1, 5-HT6 binding, at 1 micromole
# [3] = read-out: 5-HT2A IC50, antagonism of 3 nM DOI, CHO cells, FLIPR
# T1 sequence (P50406 whole entry): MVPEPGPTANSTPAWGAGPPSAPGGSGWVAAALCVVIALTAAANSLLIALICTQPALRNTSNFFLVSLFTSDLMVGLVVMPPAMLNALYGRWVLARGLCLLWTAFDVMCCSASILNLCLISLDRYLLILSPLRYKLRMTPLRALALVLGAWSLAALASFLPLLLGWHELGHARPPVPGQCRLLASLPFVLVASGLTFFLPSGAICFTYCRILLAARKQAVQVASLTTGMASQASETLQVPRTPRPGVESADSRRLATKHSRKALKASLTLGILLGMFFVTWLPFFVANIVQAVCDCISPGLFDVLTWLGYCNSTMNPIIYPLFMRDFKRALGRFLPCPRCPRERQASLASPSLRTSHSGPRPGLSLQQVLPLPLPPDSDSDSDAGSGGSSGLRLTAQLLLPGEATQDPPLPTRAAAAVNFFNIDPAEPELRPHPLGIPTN
# T2 sequence (P23975 whole entry): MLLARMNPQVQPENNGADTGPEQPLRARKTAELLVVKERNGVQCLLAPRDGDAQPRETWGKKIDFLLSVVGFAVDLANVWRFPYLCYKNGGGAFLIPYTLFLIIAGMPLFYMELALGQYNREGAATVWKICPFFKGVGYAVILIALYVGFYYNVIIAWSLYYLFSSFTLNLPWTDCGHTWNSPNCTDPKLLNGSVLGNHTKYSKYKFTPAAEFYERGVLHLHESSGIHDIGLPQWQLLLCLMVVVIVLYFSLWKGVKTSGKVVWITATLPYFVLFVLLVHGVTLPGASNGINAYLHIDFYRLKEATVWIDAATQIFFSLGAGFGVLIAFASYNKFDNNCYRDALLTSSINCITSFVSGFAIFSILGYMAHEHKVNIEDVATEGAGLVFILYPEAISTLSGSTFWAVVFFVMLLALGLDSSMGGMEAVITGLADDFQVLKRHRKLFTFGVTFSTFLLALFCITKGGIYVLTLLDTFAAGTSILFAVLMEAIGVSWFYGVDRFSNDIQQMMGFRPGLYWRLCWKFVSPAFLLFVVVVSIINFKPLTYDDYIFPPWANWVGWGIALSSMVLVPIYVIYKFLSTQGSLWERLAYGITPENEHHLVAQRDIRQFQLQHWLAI
# Sequence of human 5-HT2A receptor (P28223 whole entry): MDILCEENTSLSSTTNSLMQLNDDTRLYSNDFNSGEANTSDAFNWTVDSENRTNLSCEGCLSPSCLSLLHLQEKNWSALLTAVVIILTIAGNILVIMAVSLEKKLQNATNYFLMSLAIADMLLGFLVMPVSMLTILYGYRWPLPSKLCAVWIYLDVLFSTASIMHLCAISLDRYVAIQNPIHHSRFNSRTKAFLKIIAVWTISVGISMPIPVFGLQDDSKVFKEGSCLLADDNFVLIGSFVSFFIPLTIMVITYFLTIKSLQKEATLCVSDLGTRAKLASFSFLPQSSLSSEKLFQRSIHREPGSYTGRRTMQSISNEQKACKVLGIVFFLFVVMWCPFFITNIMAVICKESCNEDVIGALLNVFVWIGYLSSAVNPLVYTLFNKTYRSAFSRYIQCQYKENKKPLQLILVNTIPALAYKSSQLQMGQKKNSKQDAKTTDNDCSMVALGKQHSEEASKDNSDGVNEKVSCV
compound,measurement,setting,value
"CCNCCc1cccc2[nH]cc(S(=O)(=O)c3ccccc3)c12 [Example 33, N-ethyl-N-{2-[3-(phenylsulfonyl)-1H-indol-4-yl]ethyl}amine]",Ki,[1]; Table 1,207 nM
same,pKi,"[1]; Table 2, read-out: 5-HT6 Ki",6.68
same,pIC50,human 5-HT2A receptor,5.96
"CC1CCCN(CCc2cccc3[nH]cc(S(=O)(=O)c4ccccc4)c23)C1 (centres unmarked) [Example 57, 4-[2-(3-methylpiperidin-1-yl)ethyl]-3-(phenylsulfonyl)-1H-indole]",pIC50,human 5-HT2A receptor,7.14
"CC(C)N(C)CCc1cccc2[nH]cc(S(=O)(=O)c3ccccc3)c12 [Example 53, N-methyl-N-{2-[3-(phenylsulfonyl)-1H-indol-4-yl]ethyl}propan-2-amine]",pIC50,human hNET,6.90
same,pIC50,human 5-HT2A receptor,6.20
"O=S(=O)(c1ccccc1)c1c[nH]c2cccc(CCNC3CCCCC3)c12 [Example 39, N-{2-[3-(phenylsulfonyl)-1H-indol-4-yl]ethyl}cyclohexanamine]",pIC50,human hNET,5.84
same,pKi,"[1]; Table 2, read-out: 5-HT6 Ki",6.22
same,inhibition at 1 µM,[1],42%
same,pIC50,human 5-HT2A receptor,7.21
"CC(C)(C)CNCCc1cccc2[nH]cc(S(=O)(=O)c3ccccc3)c12 [Example 49, N-(2,2-dimethylpropyl)-N-{2-[3-(phenylsulfonyl)-1H-indol-4-yl]ethyl}amine]",inhibition at 1 µM,human hNET,37%
same,inhibition at 1 µM,[1]; [2],63%
same,pKi,"[1]; Table 2, read-out: 5-HT6 Ki",6.19
"CCN(CCc1cccc2[nH]cc(S(=O)(=O)c3ccccc3)c12)C(C)C [Example 54, N-ethyl-N-{2-[3-(phenylsulfonyl)-1H-indol-4-yl]ethyl}propan-2-amine]",pIC50,human hNET,6.31
same,pIC50,human 5-HT2A receptor,6.71
"CNCCc1cccc2[nH]cc(S(=O)(=O)c3ccccc3)c12 [Example 32, N-methyl-N-{2-[3-(phenylsulfonyl)-1H-indol-4-yl]ethyl}amine]",Ki,[1]; Table 1,143 nM
same,pKi,"[1]; Table 2, read-out: 5-HT6 Ki",6.84
same,pIC50,human 5-HT2A receptor; [3],5.96
"CC1CCC[C@H](C)N1CCc1cccc2[nH]cc(S(=O)(=O)c3ccccc3)c12 (stereo in doubt) [Example 52, 4-{2-[(2R*,6S)-2,6-dimethylpiperidin-1-yl]ethyl}-3-(phenylsulfonyl)-1H-indole]",inhibition at 1 µM,human hNET,32%
same,inhibition at 1 µM,human 5-HT2A receptor,16%
"CC1CCCCN1CCc1cccc2[nH]cc(S(=O)(=O)c3ccccc3)c12 (centres unmarked) [Example 56, 4-[2-(2-methylpiperidin-1-yl)ethyl]-3-(phenylsulfonyl)-1H-indole]",pIC50,human 5-HT2A receptor,7.14
"CCCNCCc1cccc2[nH]cc(S(=O)(=O)c3ccccc3)c12 [Example 34, N-{2-[3-(phenylsulfonyl)-1H-indol-4-yl]ethyl}-N-propylamine]",Ki,[1]; Table 1,216 nM
same,pKi,"[1]; Table 2, read-out: 5-HT6 Ki",6.67
same,pIC50,human 5-HT2A receptor; [3],5.97
"CNCCc1ccc2[nH]c(-c3ccccc3)c(S(=O)(=O)c3ccccc3)c2c1 [Example 17, N-methyl-N-{2-[2-phenyl-3-(phenylsulfonyl)-1H-indol-5-yl]ethyl}amine]",Ki,[1]; Table 1,355 nM
same,melting point,,180 to 185 °C
"CC1CCCN1CCc1cccc2[nH]cc(S(=O)(=O)c3ccccc3)c12 (centres unmarked) [Example 55, 4-[2-(2-methylpyrrolidin-1-yl)ethyl]-3-(phenylsulfonyl)-1H-indole]",pIC50,human hNET,6.92
same,pIC50,human 5-HT2A receptor,6.94
"CNCCc1ccc2[nH]c(C)c(S(=O)(=O)c3ccccc3)c2c1 [Example 15, N-methyl-N-{2-[2-methyl-3-(phenylsulfonyl)-1H-indol-5-yl]ethyl}amine]",pKi,[1],7.36
same,melting point,,213 to 215 °C
"CCN(C)CCCc1cccc2[nH]cc(S(=O)(=O)c3ccccc3)c12 [Example 112, N-ethyl-N-methyl-3-[3-(phenylsulfonyl)-1H-indol-4-yl]propan-1-amine]",pIC50,human hNET,7.55
same,pIC50,human 5-HT2A receptor; [3],6.32
"O=S(=O)(c1ccccc1)c1c[nH]c2cccc(CCN3CCCC3)c12 [Example 43, 3-(phenylsulfonyl)-4-(2-pyrrolidin-1-ylethyl)-1H-indole]",Ki,[1]; Table 1,73 nM
same,pKi,"[1]; Table 2, read-out: 5-HT6 Ki",7.14
same,pIC50,human 5-HT2A receptor,6.71
"CC(C)NCCCc1cccc2[nH]cc(S(=O)(=O)c3ccccc3)c12 [Example 110, N-isopropyl-3-[3-(phenylsulfonyl)-1H-indol-4-yl]propan-1-amine]",pIC50,human hNET,7.96
same,pIC50,human 5-HT2A receptor; [3],5.22
"O=S(=O)(c1ccccc1)c1c[nH]c2cccc(CCCN3CCCCC3)c12 [Example 111, 3-(phenylsulfonyl)-4-(3-piperidin-1-ylpropyl)-1H-indole]",pIC50,human hNET,6.03
same,pIC50,human 5-HT2A receptor; [3],5.10
"O=S(=O)(c1ccccc1)c1c[nH]c2c(CCN3CCOCC3)cccc12 (as salt: hydrochloride) [Example 28, 7-(2-morpholin-4-ylethyl)-3-(phenylsulfonyl)-1H-indole]",melting point,,246 to 248 °C (dec.)
"O=S(=O)(c1ccccc1)c1c[nH]c2cccc(CCN3CCNCC3)c12 [Example 60, 3-(phenylsulfonyl)-4-(2-piperazin-1-ylethyl)-1H-indole]",pIC50,human hNET,6.24
same,inhibition at 1 µM,human 5-HT2A receptor,24%
"CN(C)CCCNCCc1cccc2[nH]cc(S(=O)(=O)c3ccccc3)c12 [Example 50, N,N-dimethyl-N′-{2-[3-(phenylsulfonyl)-1H-indol-4-yl]ethyl}propane-1,3-diamine]",inhibition at 1 µM,human hNET,28%
same,Ki,[1]; Table 1,91.5 nM
same,pKi,"[1]; Table 2, read-out: 5-HT6 Ki",7.04
"O=S(=O)(c1ccccc1)c1c[nH]c2ccc(CCN3CCCCC3)cc12 (as salt: hydrochloride) [Example 10, 3-(phenylsulfonyl)-5-(2-piperidin-1-ylethyl)-1H-indole]",melting point,,272 °C
"O=S(=O)(c1ccccc1)c1c[nH]c2cccc(CCN3CCCC3)c12 (as salt: hydrochloride) [Example 43, 3-(phenylsulfonyl)-4-(2-pyrrolidin-1-ylethyl)-1H-indole]",melting point,,145 to 150 °C
"CC(C)CNCCc1cccc2[nH]cc(S(=O)(=O)c3ccccc3)c12 (as salt: hydrochloride) [Example 48, N-isobutyl-N-{2-[3-(phenylsulfonyl)-1H-indol-4-yl]ethyl}amine]",melting point,,220 °C
"CCc1[nH]c2ccc(CCNC)cc2c1S(=O)(=O)c1ccccc1 [Example 16, N-{2-[2-ethyl-3-(phenylsulfonyl)-1H-indol-5-yl]ethyl}-N-methylamine]",pKi,[1],7.54
same,melting point,,179 to 182 °C
"O=S(=O)(c1ccccc1)c1c[nH]c2ccc(CCNC3CC3)cc12 (as salt: hydrochloride) [Example 4, N-{2-[3-(phenylsulfonyl)-1H-indol-5-yl]ethyl}cyclopropanamine]",melting point,,205 to 208 °C
"CN(C)CCc1ccc2[nH]cc(S(=O)(=O)c3ccccc3)c2c1 (as salt: hydrochloride) [Example 1, N,N-dimethyl-N-{2-[3-(phenylsulfonyl)-1H-indol-5-yl]ethyl}amine]",melting point,,251 °C
"NCCc1cccc2[nH]cc(S(=O)(=O)c3ccccc3)c12 (as salt: hydrochloride) [Example 61, {2-[3-(phenylsulfonyl)-1H-indol-4-yl]ethyl}amine]",melting point,,130 to 134 °C
"CCN(C)CCc1cccc2[nH]cc(S(=O)(=O)c3ccccc3)c12 (as salt: hydrochloride) [Example 40, N-ethyl-N-methyl-N-{2-[3-(phenylsulfonyl)-1H-indol-4-yl]ethyl}amine]",melting point,,92 to 98 °C
"O=S(=O)(c1ccccc1)c1c[nH]c2cccc(CCN3CCCCCC3)c12 [Example 58, 4-(2-azepan-1-ylethyl)-3-(phenylsulfonyl)-1H-indole]",pIC50,human 5-HT2A receptor,7.05
"CNCCc1ccc2[nH]cc(S(=O)(=O)c3ccccc3)c2c1 [Example 14, N-methyl-N-{2-[3-(phenylsulfonyl)-1H-indol-5-yl]ethyl}amine]",Ki,[1]; Table 1,5.2 nM
same,melting point,,151 to 154 °C
"CN(C)CCc1cccc2[nH]cc(S(=O)(=O)c3ccccc3)c12 (as salt: hydrochloride) [Example 31, N,N-dimethyl-N-{2-[3-(phenylsulfonyl)-1H-indol-4-yl]ethyl}amine]",melting point,,122 to 126 °C
"CN(C)CCc1cccc2c(S(=O)(=O)c3ccccc3)c[nH]c12 (as salt: hydrochloride) [Example 18, N,N-dimethyl-N-{2-[3-(phenylsulfonyl)-1H-indol-7-yl]ethyl}amine]",melting point,,205 to 208 °C (dec.)
"CN1CCN(CCc2cccc3[nH]cc(S(=O)(=O)c4ccccc4)c23)CC1 [Example 59, 4-[2-(4-methylpiperazin-1-yl)ethyl]-3-(phenylsulfonyl)-1H-indole]",pIC50,human hNET,5.88
same,inhibition at 1 µM,human 5-HT2A receptor,13%
"O=S(=O)(c1ccccc1)c1c[nH]c2cccc(CCNC3CC3)c12 (as salt: hydrochloride) [Example 36, N-{2-[3-(phenylsulfonyl)-1H-indol-4-yl]ethyl}cyclopropanamine]",melting point,,145 to 150 °C
"CC(C)NCCc1ccc2[nH]cc(S(=O)(=O)c3ccccc3)c2c1 (as salt: hydrochloride) [Example 3, N-{2-[3-(phenylsulfonyl)-1H-indol-5-yl]ethyl}propan-2-amine]",melting point,,263 °C
"CN(C)CCc1ccc2c(S(=O)(=O)c3ccccc3)c[nH]c2c1 (as salt: hydrochloride) [Example 86, N,N-dimethyl-N-{2-[3-(phenylsulfonyl)-1H-indol-6-yl]ethyl}amine]",melting point,,118 to 120 °C
"CC(NCCc1cccc2[nH]cc(S(=O)(=O)c3ccccc3)c12)C(C)(C)C (centres unmarked) (as salt: hydrochloride) [Example 46, N-{2-[3-(phenylsulfonyl)-1H-indol-4-yl]ethyl}-N-(1,2,2-trimethylpropyl)amine]",melting point,,275 °C
"O=S(=O)(c1ccccc1)c1c[nH]c2cccc(CCN3CCOCC3)c12 [Example 45, 4-(2-morpholin-4-ylethyl)-3-(phenylsulfonyl)-1H-indole]",inhibition at 1 µM,human hNET,28%
same,inhibition at 1 µM,[1]; [2],59%
same,pKi,"[1]; Table 2, read-out: 5-HT6 Ki",6.12
